In PubChem BioAssay (NCI):
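Interpolation was linear, between the two tested concentrations surrounding the appropriate level; five concentrations were tested over 48 hours in 96-well plates. TGI: total growth inhibition.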

Key:
Assay in all cases: DTP human tumour cell line panel, 48 h
[1] = tested on: NCI-H23 lung
[2] = tested on: BT-549 breast
[3] = tested on: LOX IMVI melanoma
[4] = tested on: SR leukemia
[5] = tested on: DU-145 prostate
[6] = tested on: HL-60(TB) leukemia
[7] = tested on: A549 NSCLC
[8] = tested on: SF-539 CNS
[9] = tested on: M14 melanoma
[10] = tested on: NCI/ADR-RES ovarian

SMILES	TGI [1] [µM]	TGI [2] [µM]	TGI [3] [µM]	TGI [4] [µM]	TGI [5] [µM]	TGI [6] [µM]	TGI [7] [µM]	TGI [8] [µM]	TGI [9] [µM]	TGI [10] [µM]
Cc1ccc(NC(=O)CSc2nc(=O)[nH]c3nc[nH]c23)cc1	> 100	> 100	> 100	> 100	> 100	> 100	> 100	52.8	> 100	> 100
Cc1noc(NC2=CC(=O)C(=O)c3ccccc32)c1C	35.5	50.2	> 100	> 100	> 100	52.2	55.3	14.1	> 100	21.4
CN(c1ccccc1Cl)S(=O)(=O)c1ccc([N+](=O)[O-])cc1	> 100	> 100	> 100	> 100	> 100	> 100	> 100	> 100	> 100	> 100
CC(C)C(/C=C/c1ccc(Cl)c(Cl)c1)=N\NC(=O)N/N=C(/C=C/c1ccc(Cl)c(Cl)c1)C(C)C	> 100	> 100	> 100	> 100	> 100	> 100		> 100	> 100	> 100
CC[C@H]1C=CCC[C@@]2(C[C@@H]3CC[C@H]4[C@@H](C(=O)OCCCCCCCCCCCCCCCC(=O)N(CCCN)C[C@@H](O)CCN)[C@@]5(CCC[C@@H](C)O5)NC(=[N+]34)N2)O1	3.51	4.41	3.35	3.78	3.61	4.24	3.35	2.78	3.82	> 10
CC1=NN(c2nc(N)nc(CC#N)n2)C(C)(C)C1	> 100	> 100	> 100	> 100	> 100	> 100		> 100	> 100	> 100
CCCCCCCCCCCCCCCC(=O)N(CCCCCCCCCCC(=O)O)CC(O)C(O)C(OC1OC(CO)C(O)C(O)C1O)C(O)CO (stereo not drawn)	> 100	68	35.1	49.9	> 100	47.7	> 100	54.9	50.2	61.1
